Columns and labels:
[1] = molecular target: Carbonic anhydrase 5B, mitochondrial (Homo sapiens) (UniProt Q9Y2D0)
Description: Inhibition of human mitochondrial CA5B by CO2 hydration assay

[2] = molecular target: Carbonic anhydrase 5A, mitochondrial (Homo sapiens) (UniProt P35218); assay: Inhibition of human mitochondrial CA5A by CO2 hydration assay
Carbonic anhydrase 5A, mitochondrial (Homo sapiens), sequence (P35218 whole entry): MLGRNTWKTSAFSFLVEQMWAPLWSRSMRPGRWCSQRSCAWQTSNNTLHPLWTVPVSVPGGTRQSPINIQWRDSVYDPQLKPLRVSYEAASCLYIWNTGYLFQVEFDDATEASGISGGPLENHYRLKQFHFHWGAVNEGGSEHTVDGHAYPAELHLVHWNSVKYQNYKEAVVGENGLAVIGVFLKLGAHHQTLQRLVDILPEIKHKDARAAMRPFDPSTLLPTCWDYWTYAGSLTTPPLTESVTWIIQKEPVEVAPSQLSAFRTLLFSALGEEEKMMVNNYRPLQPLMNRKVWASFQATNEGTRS

Carbonic anhydrase 5B, mitochondrial (Homo sapiens), sequence (Q9Y2D0 whole entry): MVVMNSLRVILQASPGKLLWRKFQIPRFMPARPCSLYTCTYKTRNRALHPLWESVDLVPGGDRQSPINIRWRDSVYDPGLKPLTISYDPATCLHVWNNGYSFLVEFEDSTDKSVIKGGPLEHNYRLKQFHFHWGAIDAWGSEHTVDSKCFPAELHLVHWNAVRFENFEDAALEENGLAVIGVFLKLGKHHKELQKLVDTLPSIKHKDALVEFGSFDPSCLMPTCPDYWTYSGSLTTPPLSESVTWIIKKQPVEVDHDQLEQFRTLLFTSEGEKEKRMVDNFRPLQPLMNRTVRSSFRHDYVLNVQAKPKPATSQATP

| Compound | Kinact [1] | Kinact [2] |
| --- | --- | --- |
| O=[As](O)(O)c1ccccc1 | 0.082 mM | 1.02 mM |
| OB(O)c1ccccc1 | – | 1.04 mM |

Source: ChEMBL document CHEMBL1137441, “Carbonic anhydrase inhibitors: the inhibition profiles of the human mitochondrial isoforms VA and VB with anions are very different” (Bioorg Med Chem, 2007)
